Legend:
Assay type in all cases: biochemical, human
[1] = system: normal plasma pool (NPP); test: PiCT Method 3 clotting time on ACL TOP 500; conditions: Table 8B (argatroban), PiCT Method 3, NPP spiked, mean n = 4
Source text: The 4 methods (see above) are in more detail described in the Examples. Specific pipetting schemes were designed using NPP spiked with incremental amounts of anticoagulants in order to achieve high reproducibility of the test system, which is required for drug identification including use in a POC system. […] […]-50/I-180/50-S). […] […]-65/I-180/35-S on the ACL TOP® 500 or […]-65/I-180/40-S on the STA Compact® or […]-65/[…]-40 on the BCS® XP. […] […]-70/I-180/40-S on the ACL TOP® 500 or STA Compact®, or […]-60/I-180/45-S on the BCS® XP.

[2] = system: plasma samples; test: aPTT (HemosIL aPTT SP) clotting time; conditions: for Clotting time with aPTT: Table 6, spiked plasma, mean
Experimental: (§1) In order to address the above question, i.e. to determine the nature of an anticoagulant in a sample, a combination of several methods has to be performed, including PiCT® Method 1, PiCT® Method 4, aPTT (HemosIL™ aPTT SP), PT (HemosIL™ PT recombiplastin), and sometimes even a modified PiCT® Method 1 wherein polybrene has been added. In order to simulate this, plasma samples spiked with different levels of anticoagulants were analyzed using the ACL TOP® 500 analyzer. For each drug, a specific pattern was obtained, i.e. clotting times within the RR and clotting times above the RR, depending on the used testing method, which is unique at least for the class of anticoagulant or even for a specific anticoagulant.

[3] = system: plasma samples; test: PiCT Method 1 with polybrene added, clotting time; conditions: Table 6, spiked plasma, mean
Source text: By the addition of polybrene a distinction can be done, which of the anticoagulants is really present in the sample: if after addition of polybrene the measured clotting times are again back to RR when using the PiCT® Method 1, the sample comprises heparins, such as e.g. UFH or LMWH. Alternatively, if the result is not going back to RR, the sample comprises low concentrations of dabigatran or hirudin. […] The particular clotting times measured for the different anticoagulants are shown in Table 6, which is an example of results obtained in spiked plasma samples.
as §1

| SMILES | Clotting time ([1]; 0.2 μg/ml) [s] | Clotting time ([1]; 0.4 μg/ml) [s] | Clotting time ([1]; 0.6 μg/ml) [s] | Clotting time ([1]; 0.8 μg/ml) [s] | Clotting time ([1]; 1.0 μg/ml) [s] | Clotting time ([1]; 1.2 μg/ml) [s] | Clotting time ([1]; 1.4 μg/ml) [s] | Clotting time ([1]; 1.6 μg/ml) [s] | Clotting time ([1]; 1.8 μg/ml) [s] | Clotting time ([1]; 2.0 μg/ml) [s] | Clotting time with aPTT ([2]; 0.3 μg) [s] | Clotting time with aPTT ([2]; 1.5 μg) [s] | Clotting time with PiCT ® Method 1 + polybrene ([3]; 0.3 μg) [s] | Clotting time with PiCT ® Method 1 + polybrene ([3]; 1.5 μg) [s] | Clotting time with aPTT ([2]; 50 ng) [s] | Clotting time with aPTT ([2]; 200 ng) [s] | aPTT clotting time relative to reference range (RR) ([2]; only at higher doses, in the range of 200 ng or more) |
| --- | --- | --- | --- | --- | --- | --- | --- | --- | --- | --- | --- | --- | --- | --- | --- | --- | --- |
| CC1CNc2c(cccc2S(=O)(=O)N[C@@H](CCCNC(=N)N)C(=O)N2CC[C@@H](C)C[C@@H]2C(=O)O)C1 (some centres unmarked) [argatroban] | 113 | 145 | 162 | 179 | 198 | 204 | 210 | 232 | 234 | 240 | 61.7 | 106.2 | 85.6 | 126.4 | – | – | – |
| O=C(NC[C@H]1CN(c2ccc(N3CCOCC3=O)cc2)C(=O)O1)c1ccc(Cl)s1 [rivaroxaban] | – | – | – | – | – | – | – | – | – | – | – | – | – | – | 34.5 | 49.6 | above the RR |
